Measurements reported in patent publication US9708311B2, “Benzimidazole derivatives as EP4 antagonists” (BAYER PHARMA AKTIENGESELLSCHAFT, priority 2012, dated 2017).

The compounds below were run against human EP4 receptor (Homo sapiens (Human), UniProt P35408) (assay: Test for antagonism of the human EP4 receptor signal (cAMP HTRF)). Settings: cells expressing hEP4, PGE2 at EC80 (0.4 nM), cAMP TR-FRET; read-out: Antagonism hEP4 IC50.
Assay type: cell-based
Outline: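 Antagonism of PGE2-stimulated cAMP formation in hEP4-R cells with IBMX present. After lysis, cAMP measured by competitive TR-FRET (Eu cryptate anti-cAMP antibody vs cAMP-d2), 20 min at room temperature. Read-out is the 665/620 nm emission ratio; antagonism appears as restored FRET signal.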

human EP4 receptor, sequence (P35408 whole entry): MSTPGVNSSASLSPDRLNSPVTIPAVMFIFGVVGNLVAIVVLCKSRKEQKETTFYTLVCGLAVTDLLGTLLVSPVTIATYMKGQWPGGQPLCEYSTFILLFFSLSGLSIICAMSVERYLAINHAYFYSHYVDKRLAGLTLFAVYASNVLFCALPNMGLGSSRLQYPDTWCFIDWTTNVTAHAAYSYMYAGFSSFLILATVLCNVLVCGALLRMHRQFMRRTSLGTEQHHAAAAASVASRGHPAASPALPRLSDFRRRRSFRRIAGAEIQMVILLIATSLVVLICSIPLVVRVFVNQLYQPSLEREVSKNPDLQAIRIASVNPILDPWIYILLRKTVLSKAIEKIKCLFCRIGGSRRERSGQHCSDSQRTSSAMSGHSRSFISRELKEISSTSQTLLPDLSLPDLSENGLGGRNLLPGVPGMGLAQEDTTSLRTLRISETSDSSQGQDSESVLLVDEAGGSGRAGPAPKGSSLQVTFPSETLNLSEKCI

Going from `CCn1c2ccccc2c2cc(-c3nc4cc(C(=O)NC)ccc4n3CCN(C)C)ccc21` [Example 73, 1-[2-(Dimethylamino)ethyl]-2-(9-ethyl-9H-carbazol-3-yl)-N-methyl-1H-benzimidazole-5-carboxamide] to `CCn1c2ccccc2c2cc(-c3nc4cc(C(=O)NCCN(C)C)ccc4n3CCOC)ccc21` [Example 86, N-[2-(Dimethylamino)ethyl]-2-(9-ethyl-9H-carbazol-3-yl)-1-(2-methoxyethyl)-1H-benzimidazole-5-carboxamide], the IC50 falls from 382 nM to 245 nM (1.6-fold).

Going from `CCn1c2ccccc2c2cc(-c3nc4cc(C(=O)NS(=O)(=O)C5CC5)ccc4n3CCN(C)C)ccc21` [Example 74, N-(Cyclopropylsulphonyl)-1-[2-(dimethylamino)ethyl]-2-(9-ethyl-9H-carbazol-3-yl)-1H-benzimidazole-5-carboxamide] to `CCn1c2ccccc2c2cc(-c3nc4cc(C(=O)NS(=O)(=O)c5ccc(C)cc5)ccc4n3CCN(C)C)ccc21` [Example 75, 1-[2-(Dimethylamino)ethyl]-2-(9-ethyl-9H-carbazol-3-yl)-N-[(4-methylphenyl)sulphonyl]-1H-benzimidazole-5-carboxamide], the IC50 falls from 87.2 nM to 21.4 nM (4.1-fold). The second is the more potent here.

Compared with `CCn1c2ccccc2c2cc(-c3nc4cc(C(=O)N5CCCC5)ccc4n3CCOC)ccc21` [Example 76, [2-(9-Ethyl-9H-carbazol-3-yl)-1-(2-methoxyethyl)-1H-benzimidazol-5-yl](pyrrolidin-1-yl)-methanone], `CCn1c2ccccc2c2cc(-c3nc4cc(C(=O)N5CCOCC5)ccc4n3CCOC)ccc21` [Example 81, [2-(9-Ethyl-9H-carbazol-3-yl)-1-(2-methoxyethyl)-1H-benzimidazol-5-yl](morpholin-4-yl)-methanone] is 3-fold higher in IC50: 41.3 nM for the first, 123 nM for the second.

Going from `CCn1c2ccccc2c2cc(-c3nc4cc(C(=O)NCC(F)(F)F)ccc4n3CCOC)ccc21` [Example 77, 2-(9-Ethyl-9H-carbazol-3-yl)-1-(2-methoxyethyl)-N-(2,2,2-trifluoroethyl)-1H-benzimidazole-5-carboxamide] to `CCn1c2ccccc2c2cc(-c3nc4cc(C(N)=O)ccc4n3CCOC)ccc21` [Example 82, 2-(9-Ethyl-9H-carbazol-3-yl)-1-(2-methoxyethyl)-1H-benzimidazole-5-carboxamide], the IC50 rises from 49.2 nM to 134 nM (2.7-fold). The first is the more potent here.

First: CCn1c2ccccc2c2cc(-c3nc4cc(C(=O)NCCN5CCOCC5)ccc4n3CCOC)ccc21 [Example 78, 2-(9-Ethyl-9H-carbazol-3-yl)-1-(2-methoxyethyl)-N-[2-(morpholin-4-yl)ethyl]-1H-benzimidazole-5-carboxamide]
Second: CCn1c2ccccc2c2cc(-c3nc4cc(C(=O)NCCN5CCCC5)ccc4n3CCOC)ccc21 [Example 87, 2-(9-Ethyl-9H-carbazol-3-yl)-1-(2-methoxyethyl)-N-[2-(pyrrolidin-1-yl)ethyl]-1H-benzimidazole-5-carboxamide]
The IC50 of the first is 2.8-fold lower: 74.3 nM for the first, 209 nM for the second. The first is the more potent here.

First: CCn1c2ccccc2c2cc(-c3nc4cc(C(=O)NCCN5CCOCC5)ccc4n3CC3CC3)ccc21 [Example 79, 1-(Cyclopropylmethyl)-2-(9-ethyl-9H-carbazol-3-yl)-N-[2-(morpholin-4-yl)ethyl]-1H-benzimidazole-5-carboxamide]
Second: CCn1c2ccccc2c2cc(-c3nc4cc(C(=O)N5CCC5)ccc4n3CC3CC3)ccc21 [Example 80, Azetidin-1-yl[1-(cyclopropylmethyl)-2-(9-ethyl-9H-carbazol-3-yl)-1H-benzimidazol-5-yl]-methanone]
The IC50 of the first is 1.6-fold higher: 106 nM for the first, 68.3 nM for the second.

`CCn1c2ccccc2c2cc(-c3nc4cc(C(=O)N(C)C)ccc4n3CCOC)ccc21` [Example 83, 2-(9-Ethyl-9H-carbazol-3-yl)-1-(2-methoxyethyl)-N,N-dimethyl-1H-benzimidazole-5-carboxamide] and `CCn1c2ccccc2c2cc(-c3nc4cc(C(=O)N(C)S(C)(=O)=O)ccc4n3CCOC)ccc21` [Example 84, 2-(9-Ethyl-9H-carbazol-3-yl)-1-(2-methoxyethyl)-N-methyl-N-(methylsulphonyl)-1H-benzimidazole-5-carboxamide] are within 1.5-fold of each other in IC50: 122 nM for the first, 143 nM for the second.

Compared with `C=CCn1c(-c2ccc3c(c2)c2ccccc2n3CC)nc2cc(C(=O)N(C)C)ccc21` [Example 85, 1-Allyl-2-(9-ethyl-9H-carbazol-3-yl)-N,N-dimethyl-1H-benzimidazole-5-carboxamide], `C=CCn1c(-c2ccc3c(c2)c2ccccc2n3CC)nc2cc(C(N)=O)ccc21` [Example 89, 1-Allyl-2-(9-ethyl-9H-carbazol-3-yl)-1H-benzimidazole-5-carboxamide] is 2-fold higher in IC50: 1860 nM for the first, 3640 nM for the second. The first is the more potent here.

`C=CCn1c(-c2ccc3c(c2)c2ccccc2n3CC)nc2cc(C(=O)NC)ccc21` [Example 88, 1-Allyl-2-(9-ethyl-9H-carbazol-3-yl)-N-methyl-1H-benzimidazole-5-carboxamide] and `CCn1c2ccccc2c2cc(-c3nc4cc(C(=O)NC)ccc4n3C)ccc21` [Example 90, 2-(9-Ethyl-9H-carbazol-3-yl)-N,1-dimethyl-1H-benzimidazole-5-carboxamide] are within 1.5-fold of each other in IC50: 2100 nM for the first, 2860 nM for the second.

`CCn1c2ccccc2c2cc(-c3nc4cc(C(=O)O)ccc4n3CCO)ccc21` [Example 91, 2-(9-Ethyl-9H-carbazol-3-yl)-1-(2-hydroxyethyl)-1H-benzimidazole-5-carboxylic acid] and `CCn1c2ccccc2c2cc(-c3nc4cc(C(=O)O)ccc4n3CCCOC)ccc21` [Example 100, 2-(9-Ethyl-9H-carbazol-3-yl)-1-(3-methoxypropyl)-1H-benzimidazole-5-carboxylic acid] are within 1.5-fold of each other in IC50: 113 nM for the first, 158 nM for the second.

Compared with `CCOC(=O)c1ccc2c(c1)nc(-c1ccc3c(c1)c1ccccc1n3CC)n2C(C)C` [Example 92, Ethyl 2-(9-ethyl-9H-carbazol-3-yl)-1-isopropyl-1H-benzimidazole-5-carboxylate], `CCn1c2ccccc2c2cc(-c3nc4cc(C(=O)O)ccc4n3C(C)C)ccc21` [Example 93, 2-(9-Ethyl-9H-carbazol-3-yl)-1-isopropyl-1H-benzimidazole-5-carboxylic acid] is 11-fold lower in IC50: 8000 nM for the first, 733 nM for the second. The second is the more potent here.

First: CCn1c2ccccc2c2cc(-c3nc4cc(C(=O)O)ccc4n3C)ccc21 [Example 94, 2-(9-Ethyl-9H-carbazol-3-y1)-1-methyl-1 H-benzimidazole-5-carboxylic acid]
Second: CCn1c(-c2ccc3c(c2)c2ccccc2n3CC)nc2cc(C(=O)OC)ccc21 [Example 95, Methyl 1-ethyl-2-(9-ethyl-9H-carbazol-3-yl)-1H-benzimidazole-5-carboxylate]
The IC50 of the first is 5.3-fold lower: 195 nM for the first, 1030 nM for the second. The first is the more potent here.

Going from `C=CCn1c2ccccc2c2cc(-c3nc4cc(C(=O)O)ccc4n3CCOC)ccc21` [Example 96, 2-(9-Allyl-9H-carbazol-3-yl)-1-(2-methoxyethyl)-1H-benzimidazole-5-carboxylic acid] to `COCCn1c(-c2ccc3c(c2)c2ccccc2n3CCOC)nc2cc(C(=O)O)ccc21` [Example 98, 1-(2-Methoxyethyl)-2-[9-(2-methoxyethyl)-9H-carbazol-3-yl]-1H-benzimidazole-5-carboxylic acid], the IC50 rises from 16.5 nM to 112 nM (6.8-fold).

Compared with `CCOC(=O)c1ccc2c(c1)nc(-c1ccc3c(c1)c1ccccc1n3CCOC)n2CCOC` [Example 97, Ethyl 1-(2-methoxyethyl)-2-[9-(2-methoxyethyl)-9H-carbazol-3-yl]-1H-benzimidazole-5-carboxylate], `CCOC(=O)c1ccc2c(c1)nc(-c1ccc3c(c1)c1ccccc1n3CC)n2CCCOC` [Example 99, Ethyl 2-(9-ethyl-9H-carbazol-3-yl)-1-(3-methoxypropyl)-1H-benzimidazole-5-carboxylate] is 4.2-fold higher in IC50: 412 nM for the first, 1710 nM for the second. The first is the more potent here.

Compared with `CCn1c2ccccc2c2cc(-c3nc4cc(C(C)(C)O)ccc4n3CCOC)ccc21` [Example 101, 2-[2-(9-Ethyl-9H-carbazol-3-yl)-1-(2-methoxyethyl)-1H-benzimidazol-5-yl]propan-2-ol], `CCn1c2ccccc2c2cc(-c3nc4cc(-c5n[nH]c(=O)o5)ccc4n3CCOC)ccc21` [Example 106, 5-[2-(9-Ethyl-9H-carbazol-3-yl)-1-(2-methoxyethyl)-1H-benzimidazol-5-yl]-1,3,4-oxadiazol-2(3H)-one] is 23-fold lower in IC50: 989 nM for the first, 43.7 nM for the second. The second is the more potent here.

First: CCn1c2ccccc2c2cc(-c3nc4cc(C(=O)O)c(OC)cc4n3CC3CC3)ccc21 [Example 102, 1-(Cyclopropylmethyl)-2-(9-ethyl-9H-carbazol-3-yl)-6-methoxy-1H-benzimidazole-5-carboxylic acid]
Second: CCn1c2ccccc2c2cc(-c3nc4cc(C(=O)O)c(C)cc4n3CC3CC3)ccc21 [Example 110, 1-(Cyclopropylmethyl)-2-(9-ethyl-9H-carbazol-3-yl)-6-methyl-1H-benzimidazole-5-carboxylic acid]
The IC50 of the first is 2.4-fold higher: 2830 nM for the first, 1180 nM for the second.

Going from `CCn1c2ccccc2c2cc(-c3nc4cc(C(=O)O)c(OC)cc4n3CCOC)ccc21` [Example 103, 2-(9-Ethyl-9H-carbazol-3-yl)-6-methoxy-1-(2-methoxyethyl)-1H-benzimidazole-5-carboxylic acid] to `CCn1c2ccccc2c2cc(-c3nc4c(C)c(C(=O)O)ccc4n3CCOC)ccc21` [Example 105, 2-(9-Ethyl-9H-carbazol-3-yl)-1-(2-methoxyethyl)-4-methyl-1H-benzimidazole-5-carboxylic acid], the IC50 falls from 3110 nM to 64.3 nM (48-fold).

Compared with `CCn1c2ccccc2c2cc(-c3nc4c(C)c(C(=O)O)ccc4n3CC3CC3)cnc21` [Example 107, 1-(Cyclopropylmethyl)-2-(9-ethyl-9H-pyrido[2,3-b]indol-3-yl)-4-methyl-1H-benzimidazole-5-carboxylic acid], `CCn1c2ccc(-c3nc4cc(C(=O)O)ccc4n3CC3CC3)cc2c2ccncc21` [Example 108, 1-(Cyclopropylmethyl)-2-(9-ethyl-9H-beta-carbolin-6-yl)-1H-benzimidazole-5-carboxylic acid] is 3.6-fold lower in IC50: 433 nM for the first, 119 nM for the second. The second is the more potent here.

`CCn1c2ccncc2c2cc(-c3nc4cc(C(=O)O)ccc4n3CC3CC3)ccc21` [Example 109, 1-(Cyclopropylmethyl)-2-(5-ethyl-5H-pyrido[4,3-b]indol-8-yl)-1H-benzimidazole-5-carboxylic acid] showed an IC50 of 178 nM.
